From US8822413B2, “Bifunctional hormone having alpha-MSH activity and natriuretic peptide activity and uses thereof” (Theratechnologies Inc., priority 2007, dated 2014)
Bridge positions count the residues as written; N and C are the ends. Square brackets hold non-standard residues; d marks the D form. Peptide text beside a SMILES is read from it.

Experiments:
Sprague-Dawley (SD) rats [1] = experiment: Chronic infusion, acute kidney dysfunction following renal ischemia; type: in vivo, rat; conditions: FIG. 5
Procedure: After removing the renal artery clamps, peptide #2 or #33 was infused at two doses using intraperitoneally implanted Alzet™ minipumps (2ML1; delivery rate 10 μl/h). Plasma creatinine and BUN were determined at the indicated times. Data were analyzed by two way ANOVA using Bonferroni test for significance against the saline-treated group (n=3 per group; sal n=6); and
(§1) Surgical preparation. The rats were anesthetized with Isoflurane 2.5% for the duration of the experiment. Animals were placed under radiant warmer to keep the temperature at 37.5° C. A blood sample (0.5 ml) was collected via tail vein artery before the renal artery clamping. Once the animal was anesthetized, placed in a supine position, a 1.5 cm flank incision was made on the right side of the abdominal wall. The right kidney was then exposed and the ureter, renal artery and renal vein were carefully dissected and ligated. The kidney was removed after cutting renal pedicle. A same incision was made on the left side of the abdominal wall. The left kidney is exposed and the renal vascular pedicle is carefully dissected. The renal vascular pedicle was then occluded by placing a vascular clip (Micro Serrefine™, Fine Science Tools) for a period of 30 or 45 minutes. This renal vascular pedicle clamping produced an acute renal artery occlusion (RAO). The kidney was inspected for ischemia as well as for good reperfusion after removing vascular clip for 2 minutes. The wound of abdominal wall was closed in two layers. The muscular layer was closed with a running 3-0 silk suture and the skin was closed with suture clips (Fine Science Tools). 21 hours after right nephrectomy and left renal artery clipping procedure, the rats were put in the metabolic cages for urine collection (in pre-weighed Tube 50 ml) for 3 hours. Urine volume was measured by weighing the tube containing urine. Then, the animals were anesthetized with Isoflurane 2.5%. Left kidney was removed and kept in formalin for future histology. Blood was collected by cardiac puncture into a heparinized syringe (3 ml) and immediately transferred into appropriately labeled tubes that contain heparin as the anticoagulant. Following collection, all blood samples were kept on ice and centrifuged for 2 min at 13000 rpm. Plasma and urine aliquots (400 μl) were removed and stored at −80° C.
In order to test the effect of chronic infusion of the bifunctional hormone on kidney function on kidney injury, peptides #2 or #33 were infused at 1.5 or 15 μg/kg/h for 24 h after renal artery clamp removal. Plasma creatinine and urea nitrogen were determined at 24 h after the injury. The experimental procedures (animal model, dosing solutions) were the same as those described in Example 5 above.

Sprague-Dawley (SD) rats [2] = experiment: Post-injury (therapeutic) treatment, acute kidney dysfunction following renal ischemia; type: in vivo, rat; conditions: 15 μg/kg/h for 2 h after clamp removal, FIG. 4
Procedure: Peptides #2 and #33 were infused for 2 h after the removal of the renal clamps in the rat model of renal ischemia. Blood samples were collected at the indicated times and plasma creatinine and urea were determined. Data were analyzed by two way ANOVA using Bonferroni test for significance against the saline-treated group (n=3 per group; sal n=6);
as §1
Preparation of dosing solutions. Peptides (#2 and #33) were also made up fresh daily in a 0.1% HSA saline solution (33 μl of 30% HSA in […] saline) at concentration of 100 μg/100 μl. […]
In order to verify if short infusions of the peptides post-injury (therapeutic treatment) would be beneficial to reduce kidney injury, peptides #2 or #33 were infused at 15 μg/kg/h for 2 h after renal artery clamp removal. Plasma creatinine and urea were determined at different times. […]

[3] = 1.5 or 15 μg/kg/h for 24 h after clamp removal (Alzet minipumps), vs saline-treated animals at 24 h
[4] = later time points 21 h and 27 h

CC[C@H](C)[C@@H]1NC(=O)[C@H](CCCNC(=N)N)NC(=O)[C@H](CC(=O)O)NC(=O)[C@H](CCSC)NC(=O)[C@H](CCCNC(=N)N)NC(=O)CNC(=O)CNC(=O)[C@H](Cc2ccccc2)NC(=O)[C@@H](NC(=O)[C@H](CCSC)NC(=O)[C@@H]2CCCN2C(=O)[C@H](CCCCN)NC(=O)CNC(=O)[C@H](Cc2c[nH]c3ccccc23)NC(=O)[C@H](CCCNC(=N)N)NC(=O)[C@@H](Cc2ccccc2)NC(=O)[C@H](Cc2c[nH]cn2)NC(C)=O)CSSC[C@@H](C(=O)N[C@@H](CC(N)=O)C(=O)N[C@@H](CO)C(=O)N[C@@H](Cc2ccccc2)C(=O)N[C@@H](CCCNC(=N)N)C(=O)N[C@@H](Cc2ccc(O)cc2)C(N)=O)NC(=O)CNC(=O)[C@H](CC(C)C)NC(=O)CNC(=O)[C@H](CO)NC(=O)[C@H](CCC(N)=O)NC(=O)[C@H](C)NC(=O)CNC1=O [SEQ ID NO: 33, Ac-H-f-R-W-G-K-P-M-[C-F-G-G-R-M-D-R-I-G-A-Q-S-G-L-G-C]-N-S-F-R-Y-NH2] (Ac-H[dF]RWGKPMCFGGRMDRIGAQSGLGCNSFRY-NH2; disulfide 9-25)
dose dependence of reduction in the blood markers of renal ischemia (Sprague-Dawley (SD) rats [1]; 1.5 and 15 μg/kg/h for 24 h): dose-dependent reduction
BUN (Sprague-Dawley (SD) rats [1]; [3]): reduced plasma creatinine and BUN significantly
plasma creatinine (Sprague-Dawley (SD) rats [1]; [3]): reduced plasma creatinine and BUN significantly
reduction in BUN levels, compared with native ANP (Sprague-Dawley (SD) rats [1]; 24-hour infusion): more pronounced reduction
reduction in creatinine levels, compared with native ANP (Sprague-Dawley (SD) rats [1]; 24-hour infusion): more pronounced reduction
BUN (Sprague-Dawley (SD) rats [2]; at 4 h): prevented the rise
plasma creatinine (Sprague-Dawley (SD) rats [2]; at 4 h): prevented the rise
reducing BUN levels, compared with native ANP (Sprague-Dawley (SD) rats [2]; [4]): more effective than native ANP
reducing creatinine levels, compared with native ANP (Sprague-Dawley (SD) rats [2]; [4]): more effective than native ANP
